From patent US7192905B1, “Organophosphate insecticide synergists for fly and tick control” (priority 2003, dated 2007)

Columns and labels:
[1] = system: Santa Luiza strain of the southern cattle tick, larvae; assay: FAO larval packet test, Santa Luiza strain (Example 5); details: for resistance of the strain: Santa Luiza strain
[2] = system: Pesqueria strain of the southern cattle tick, larvae; assay: FAO larval packet test, Pesqueria strain (Example 6); details: for resistance of the strain: Pesqueria strain; for mortality: 0.1% coumaphos alone
[3] = system: horn fly (Kerrville strain, susceptible reference strain); assay: Horn fly adult treated filter paper bioassay, Kerrville strain (Example 1); format: in vivo, Haematobia irritans irritans; details: mortality after 2 hours; for effect on toxicity of chlorpyrifos: combined with chlorpyrifos 8.0 μg/cm^2; for effect on toxicity of coumaphos: combined with coumaphos 10 μg/cm^2; for effect on toxicity of pirimiphos-methyl: combined with pirimiphos-methyl 3.0 μg/cm^2
Method: The horn fly strain used in this trial (referred to as the Kerrville strain) is an in vitro strain being maintained on citrated bovine blood, and serves as a susceptible reference strain. Adult flies were exposed to organophosphate pesticide alone or in combination with varying ratios of atrazine or propazine (shown in FIGS. 1–8). Concentrations of diazinon, pirimiphos-methyl, chlorpyrifos and coumaphos were 2.8, 3.0, 8.0, and 10 μg/cm^2, respectively (measured as the amount of pesticide applied per unit area of filter paper). Compounds were dissolved in acetone and applied onto filter paper, which was then placed into petri dishes with the adult flies and held at room temperature under normal lighting conditions. Flies were examined for mortality after 2 hours.

[4] = system: brown dog tick larvae; assay: FAO larval packet test, brown dog tick (Example 8); details: for effect on larvae: coumaphos alone
[5] = system: San Roman strain of the southern cattle tick, larvae; assay: FAO larval packet test, San Roman strain (Example 3)
Method: The strain used in these bioassays was the San Roman strain of the southern cattle tick (Boophilus microplus). […] The FAO larval packet test (LPT) was used to measure the susceptibility of tick larvae to acaricides. Dilutions of acaricide were prepared, dissolving the acaricide in trichloroethylene, then mixed with olive oil (ratio=2:1). A volume of 0.7 ml of the dilution was applied uniformly onto a piece of filter paper, and allowed to dry for 2 hr (trichloroethylene evaporates). The treated filter papers were folded into “packets” using bulldog clips, and approximately 100 larvae were added into each of “pockets”, which were then kept in a incubator (27° C., 90% RH) for 24 h before reading (# of dead and alive were counted under a magnifying glass).
In a first trial, tick larvae were exposed to 1% atrazine alone or in combination with 0.3, 0.6, or 1.2% w/v coumaphos.
In a second trial, tick larvae were exposed to varying concentrations of atrazine with either 0.3% coumaphos, 0.1 or 0.05% diazinon, or 0.01% coumaphos.

[6] = system: Munoz strain of the southern cattle tick, larvae; assay: FAO larval packet test, Munoz strain (Example 7)
[7] = system: horn fly (Oklahoma strain, challenged with diazinon); assay: Horn fly adult treated filter paper bioassay, Oklahoma strain (Example 2); format: in vivo, Haematobia irritans irritans; details: for effect on coumaphos toxicity / effect on diazinon toxicity / effect on pirimiphos-methyl toxicity: triazine applied as 1% w/v solution, mortality after 2 hours; for effect on toxicity of chlorpyrifos: very high chlorpyrifos levels (140.2 μg/cm^2 and above), triazine 1% w/v
Method: The horn fly strain used in this trial (referred to as the Kerrville strain) is an in vitro strain being maintained on citrated bovine blood, and serves as a susceptible reference strain. Adult flies were exposed to organophosphate pesticide alone or in combination with varying ratios of atrazine or propazine (shown in FIGS. 1–8). […] Compounds were dissolved in acetone and applied onto filter paper, which was then placed into petri dishes with the adult flies and held at room temperature under normal lighting conditions. Flies were examined for mortality after 2 hours.
The bioassays of Example 1 were repeated using an in vivo strain (referred to as the Oklahoma strain) maintained on steers. This horn fly strain was established using eggs from flies collected from cattle at an Oklahoma State University research ranch. The strain is maintained in vivo on steers at the USDA-ARS-KBUSLIRL, and has been challenged with diazinon. Conditions for the bioassay were the same as Example 1 except for the addition of the organophosphate fenthion, and the triazine synergists were applied as a 1% w/v solution.

[8] = system: San Felipe strain of the southern cattle tick, larvae; assay: FAO larval packet test, San Felipe strain (Example 4); format: in vivo, Boophilus microplus
Method: The bioassays were conducted using the same process as described in Example 3, using the San Felipe strain of the southern cattle tick.

## CC1(C)C(C=C(Cl)Cl)C1C(=O)OCc1cccc(Oc2ccccc2)c1 (stereo not shown) [permethrin]
[1]
  resistance of the strain: 200 fold

## CCOP(=S)(OCC)Oc1cc(C)nc(C(C)C)n1 [diazinon]
[1]
  resistance of the strain: 2.6 fold
[2]
  resistance of the strain: very high level of resistance

## CCNc1nc(Cl)nc(NC(C)C)n1 [atrazine]
[3]
  effect on toxicity of chlorpyrifos: neither atrazine nor propazine had any effect
  effect on toxicity of coumaphos: reduced the toxicity
  effect on toxicity of pirimiphos-methyl: synergized
[3]; combined with diazinon 2.8 μg/cm^2, even at low ratio 0.25/1
  effect on diazinon activity (fly mortality): significant synergistic effect
[4]; atrazine alone 0.8%
  mortality: 25.7%
[4]; atrazine alone 1.0%
  mortality: 18.9%
[4]; atrazine alone at or below 0.4%
  mortality: less than 4%
[1]; 0.05% coumaphos, atrazine/coumaphos ratios of 2/1 and above
  synergism with coumaphos: Significant synergism
[1]; diazinon 0.025%, similar ratios, to a lesser extent than coumaphos
  synergism with diazinon: Synergism was also observed
[2]; 0.1% coumaphos, atrazine/coumaphos ratio 2/1 and above, both trials
  effect on coumaphos toxicity: significantly enhanced
[2]; 0.25% diazinon
  effect on toxicity of diazinon: significantly enhanced
[5]; 0.1 or 0.05% diazinon, weaker than with coumaphos
  synergism with diazinon: Synergism was also observed
[5]; 1% atrazine with 0.3, 0.6 or 1.2% w/v coumaphos, first trial, 24 h
  effect on coumaphos toxicity: dramatically increased
[5]; atrazine with 0.3% coumaphos, atrazine/coumaphos ratio 2/1, 24 h
  mortality: 100%
[5]; high atrazine/chlorpyrifos ratios (8/1 and above)
  effect on chlorpyrifos toxicity: synergized
[5]; varying atrazine concentrations, even at atrazine/coumaphos ratio 0.25/1, second trial
  effect on toxicity of 0.3% coumaphos: strongly synergized
[6]; 0.01% chlorpyrifos
  effect on toxicity of chlorpyrifos: significantly enhanced
[6]; 0.01% coumaphos
  synergism with coumaphos: varying levels of synergism
[6]; higher diazinon concentration 0.05% (data not shown)
  synergism with diazinon: synergistic effect of atrazine was observed even at low atrazine/diazinon ratios
[6]; very low diazinon 0.005%, ratio 32/1
  synergism with diazinon: only provided a synergistic effect at high atrazine/diazinon ratios
[7]
  effect on coumaphos toxicity: substantially as described in Example 1
  effect on diazinon toxicity: substantially as described in Example 1
  effect on pirimiphos-methyl toxicity: substantially as described in Example 1
  effect on toxicity of chlorpyrifos: did synergize
[8]; all concentrations except 0.8%
  toxicity of atrazine alone: virtually non-toxic
[8]; atrazine alone at 0.8%
  mortality: 5.2%
[8]; combined with 0.1% coumaphos, even at lowest atrazine/coumaphos ratio 0.125/1
  synergism with coumaphos: significant synergism

## CCOP(=S)(OCC)Oc1ccc2c(C)c(Cl)c(=O)oc2c1 [coumaphos]
[4]; 0.035% coumaphos used with the synergist atrazine (1%)
  mortality: greater than 60%
[4]; higher concentrations
  effect on larvae: mortality increased
[4]; less than or equal to 0.035%
  effect on larvae: no effect
[1]
  resistance of the strain: 5.5 fold
[1]; coumaphos alone at 0.05%
  mortality: 28.9%
[2]; first trial
  mortality: 42.6%
[2]; repeated trial
  mortality: 10.1%
[2]
  resistance of the strain: low resistance
[5]; 0.3% coumaphos alone, 24 h
  effect on larvae (mortality): virtually no effect
[5]; compared with all strains tested
  resistance of the strain to the acaricide: highest resistance
[6]; coumaphos alone 0.01%, similar to the control
  mortality: 36%

## Cc1ccc(/N=C/N(C)/C=N/c2ccc(C)cc2C)c(C)c1 [amitraz]
[1]
  resistance of the strain: 70 fold

## CC(C)Nc1nc(Cl)nc(NC(C)C)n1 [propazine]
[3]
  effect on toxicity of chlorpyrifos: neither atrazine nor propazine had any effect
  effect on toxicity of coumaphos: reduced the toxicity
  effect on toxicity of pirimiphos-methyl: synergized
[7]
  effect on coumaphos toxicity: substantially as described in Example 1
  effect on diazinon toxicity: substantially as described in Example 1
  effect on pirimiphos-methyl toxicity: substantially as described in Example 1
  effect on toxicity of chlorpyrifos: did synergize
